A melting point compilation (Tetko et al.; mined from patent text by program, amines drawn as free bases though some values may be those of a salt)

melting point [°C]	Compound
142 to 143	COc1cc(-c2nc3sccn3c2-c2ccnc(N[C@@H]3CCCN(S(=O)(=O)c4ccc(Cl)cc4)C3)n2)ccc1F
254 to 255	CCn1ncc2c1ncc1c(NC)nc3cc(C)nn3c12
186 to 187	CCn1c(=O)c2c(nc(/C=C/c3cc(OC)ccc3OC(C)=O)n2C)n(CC)c1=O
183 to 185	Cn1nc(-c2cccnc2)c(C=Cc2ccccc2C(=O)O)c1Cl
106 to 108	Cn1c(CC#N)ccc1C(=O)c1ccccc1
189 to 191	COC(=S)NC[C@H]1CN(c2ccc(-c3nc(Cn4cncn4)cs3)c(F)c2)C(=O)O1
220 to 222	Cc1cccc(Nn2c(-c3ccccc3)c(C(C)C)[nH]c2=S)c1
43 to 46	COC(=O)C=Cc1ccc(F)cc1
326 to 328	O=c1c2c[nH]c3ccccc3c-2nn1-c1ccccc1
226	COc1ccc(-n2c(CC(=O)O)c(C(=O)O)c3cc(Oc4ccc(OC(C)C)cc4)ccc32)cc1
146 to 148	Cc1nc(-c2cc3c(OC[C@@H](O)CN4CCC(c5ccc6ccccc6c5)CC4)cccc3o2)no1
190 to 192	Nc1nnc(-c2cccc(OCc3c(Cl)cccc3Cl)c2)c(N)n1
106 to 107	Cc1cc(C)c2c(n1)CC(c1ccccc1C)CC2=O (stereo not given)
245 to 247	CCc1nc2c(N)nc3cc(OCC(=O)N4CCOCC4)ccc3c2n1CC1CCOCC1
99	Cc1cc(N)nc(Br)c1
164 to 166	Cc1ccc(CNc2nc(Cl)nc(Nc3ccc4[nH]c(=O)[nH]c4c3)n2)o1
146 to 148	CCCNC(=O)CSc1nc(Cl)cc(Nc2cccc(C)c2C)n1
219 to 221	Cn1cc(C(=O)NCc2ccc(Cl)cc2)c(=O)c2cc(CC3CCOCC3)ccc21
146 to 148	Fc1ccc(NC(=S)Nc2ncccc2OCc2c(F)cccc2Cl)cc1
158 to 159	COc1ccc([C@H](Cc2ccncc2)c2ccccc2)cc1O
184 to 186	COc1cc2c(cc1-c1cccnc1)-c1c(Br)c3c(n1CC2)C(=O)N(C(C)(C)C)CCC3

melting point [°C]	Compound
207 to 208	Nc1c(C(=O)O)ccc(F)c1F
110 to 111	Nc1ncc(Cc2ccccc2)cc1Br
202	Cc1c(C(=O)O)cnn1-c1ccc([N+](=O)[O-])cc1
272 to 280	Clc1ccc(-n2cc(-c3n[nH]c4ccccc34)nn2)cn1
101 to 103	CON(O)C(=O)c1ccccc1C(F)(F)F
189 to 191	O=C(O)c1ccc(Cl)c(NC(=O)C(CS)Cc2ccccc2)c1 (stereo not given)
115 to 116	CC(C)(C(=O)OCc1ccccc1)N1COC(CO)=C(c2ccccc2)C1=O
165 to 166	NC(=O)c1c(Cl)cc(Cl)c(OCCCC(=O)O)c1Cl
214 to 216	O=C1NC(=O)c2c1c(-c1ccccc1)cc1c2c2cc(O)ccc2n1CCCCCCBr
132 to 140	CN(C(=O)Nc1ccc(Cl)c(Cl)c1)C(Cl)C(Cl)(Cl)Cl (stereo not given)
189 to 191	COC(=O)c1ccc(I)c2c(=O)c3ccccc3[nH]c12
62 to 64	CCCC[C@H](NC(=O)[C@H](CC(C)C)NC(=O)OCc1ccccc1)C(=O)CCCc1ccco1
248 to 249	COc1ccc(-n2c(C)cc(=O)[nH]c2=S)cc1
94 to 96	COc1ccc(C(=O)c2c(F)cccc2F)c(Cl)c1Cl
98 to 100	C#CCN=c1sc2cc(OC(F)(F)F)ccc2n1CC(=O)c1ccc(C)cc1
129 to 131	CCOC(=O)C1=C[C@@H](OC(CC)CC)[C@H](NC(C)=O)[C@H](O)C1
198 to 199	Cn1cc(-c2cccc(N3CCc4c(sc5c4CCCC5)C3=O)c2CO)nc(Nc2cnn(CCO)c2)c1=O
77 to 78	CCn1cccc1C(=O)O
266 to 268	O=C(N[C@H]1C[C@H](C(=O)O)Nc2cc(Cl)cc(Cl)c21)C1c2ccccc2-c2ccccc21 (relative stereo)
189 to 190	N#CCC1(c2onc(-c3ccc(O)cc3)c2-c2ccccc2)CC1

The next lines start with the compound.

Compound	melting point [°C]
Clc1ccc2ccc(COc3ccc(CN4CCc5cccc(CCc6nnn[nH]6)c54)cc3)nc2c1	69 to 73
CC(=O)NCCC1CCCc2ccc(O)cc21 (stereo not given)	153 to 155
O=C1CNc2ncc(I)cc2N1Cc1cc(F)c(F)cc1F	227 to 228
O=C(O)c1c(Cl)ccc2cc(C(F)(F)F)c(C(F)(F)F)nc12	108 to 111
CC(=O)Nc1cccc(-c2ccc(OC[C@H](O)CCc3cccnc3)cc2)c1	110 to 113
COc1cccc(C(F)(F)F)c1O	51 to 53
CNS(=O)(=O)c1ccccc1C	62 to 64
CN1C(=O)CC(c2ccccc2)C1C(O)Cc1cccc(Cl)c1 (stereo not given)	50 to 52
CCOC(=O)c1sc(-c2ccc(C#N)cc2)nc1COC(C)=O	127
O=C1CCC(N2CCN(Cc3ccccc3)CC2)CC1	83 to 85
CN(C(=S)NN)c1ccccc1	121 to 122
CCC(C)OC(=O)C(S)(C#N)C1=NC(C)Cc2cc(OC)c(OC)cc21 (stereo not given)	113 to 114
Cc1ccc(C(=O)O)c(Nc2ccc3cn[nH]c3c2)n1	273 to 274
CCc1c(C(=O)C(N)=O)c2c(NCC(=O)OC)cccc2n1Cc1ccccc1	188 to 193
CCOC(=O)/C(=N\OCC1CCCCC1)c1csc(N)n1	107 to 108
COc1ccc(C(=O)Oc2ccc(C(=O)O)c(C)c2)cc1C12CC3CC(CC(C3)C1)C2	236 to 237
CC(C)(C)NCC(O)c1ccc(N)c(F)c1F (stereo not given)	133 to 135

Compound	melting point [°C]
C#CCOCC1=C(C(=O)OCC)C(c2cccc(Cl)c2Cl)C(C(=O)OC)=C(C)N1 (stereo not given)	104 to 105
CCCCCCCCCCc1nnn(CC(=O)O)n1	83 to 86
Cc1ccccc1-n1cc(-c2ccccc2)c(CBr)n1	67
C=CCOC(=O)NCc1noc([C@H](CS)NC(=O)OC(C)(C)C)n1	55 to 58
Cc1sc(-c2nccs2)c2c1C(=O)CC(C)(C)C2	98 to 100
O=CC=C[C@@H]1O[C@H]1C#CC#CC#Cc1ccccc1 (relative stereo)	91 to 92.5
COc1ccc2ccc3c(c2c1)CC(C(=O)O)CO3 (stereo not given)	165
CC(=N)Nc1cccc(O)c1	115 to 118
CCOC(=O)C(C)(C)Oc1ccc(-c2ccc(CCNC(=O)c3cccc(OC)c3OC)cc2)cc1	< 20
Cc1oc(-c2ccccc2)nc1COc1cccc(CSc2cccc(C(=O)O)c2)c1	129 to 130
COC(=O)c1ccc2c(c1)CC(=O)O2	102 to 103
COc1ccccc1N1CCN(CCNc2ccccn2)CC1	89 to 94
CC(C)(C)c1cc(NC(=O)NNC(=O)c2ccc(N)cc2)cc(C(C)(C)C)c1O	245 to 246
CC(C)c1cccc(C(C)C)c1NC(=O)NCC1(O)CCCc2ccccc21 (stereo not given)	170 to 171
Cc1oc(-c2ccccc2)nc1COc1cccc2cc(NS(=O)(=O)C(F)(F)F)ccc12	192 to 194
Cc1cc(C)nc(Oc2ccc([N+](=O)[O-])cc2)n1	108 to 110
CC1(C(=O)Nc2ccc(C3=NNC(=O)C4CC34)cc2)CC1 (stereo not given)	253 to 255
